The text below walks through data of ChEMBL document CHEMBL2434967, “Synthesis, characterization, antiparasitic and cytotoxic evaluation of thioureas conjugated to polyamine scaffolds” (Eur J Med Chem, 2013).

The test system of assay [1] is Plasmodium falciparum. Nature of the assay: Antiplasmodial activity against chloroquine-resistant erythrocyte stages of Plasmodium falciparum Dd2 by parasite lactate dehydrogenase assay. Format: functional, organism-based.
The test system of assay [2] is Plasmodium falciparum. The assay is described as follows: Resistance index, ratio of IC50 for chloroquine-resistant Plasmodium falciparum Dd2 to IC50 for chloroquine-sensitive Plasmodium falciparum NF54. The format is functional.
A short description of assay [3]: Cytotoxicity against human WHCO1 cells after 48 hrs by MTT assay. The settings on record: WHCO1, 48 h. The format is functional, cell-based. On the technique in general: Tetrazolium dyes change colour on reduction, which living cells bring about.
Assay [4] has as its system Plasmodium falciparum. The assay is described as follows: Antiplasmodial activity against chloroquine-sensitive erythrocyte stages of Plasmodium falciparum NF54 by parasite lactate dehydrogenase assay. The format is functional, organism-based.
The next assay relates to Trichomonas vaginalis. Nature of the assay: Antimicrobial activity against Trichomonas vaginalis G3 assessed as growth inhibition at 10 uM after 24 hrs by hemocytometry. As to conditions: G3, 24 h, read-out: GI. The format is functional.
Assay [5] can be described thus: Inhibition of beta-hematin formation after overnight incubation by NP-40 detergent-mediated spectroscopic analysis. Format: functional.

Structures are written as SMILES.

`S=C(NCCCNc1ccnc2cc(Cl)ccc12)NCCCN(CCCCN(CCCNC(=S)NCCCNc1ccnc2cc(Cl)ccc12)CCCNC(=S)NCCCNc1ccnc2cc(Cl)ccc12)CCCNC(=S)NCCCNc1ccnc2cc(Cl)ccc12`: the IC50 (usually the concentration needed to halve the response being measured) with Plasmodium falciparum [1] is 510 nM; in assay [3], 990 nM; in the assay with Plasmodium falciparum [4], 200 nM; in assay [5] it was under 4500 nM. Also, the “Ratio IC50” value in the assay on Plasmodium falciparum [2] is given as 2.5. Moreover, the inhibition of growth at 10 µM in the assay with Trichomonas vaginalis was determined as 58.7%.

As to `S=C(NCCCNc1ccnc2cc(Cl)ccc12)NCCN(CCNC(=S)NCCCNc1ccnc2cc(Cl)ccc12)CCNC(=S)NCCCNc1ccnc2cc(Cl)ccc12`, the IC50 in the assay on Plasmodium falciparum [1] came to 520 nM; in assay [3] it was 6210 nM; in the assay on Plasmodium falciparum [4] it was 90 nM; in assay [5], 4480 nM. Further, the “Ratio IC50” value in the assay on Plasmodium falciparum [2] was 5.8. Further, the inhibition of growth at 10 µM in the assay on Trichomonas vaginalis was found to be 51.4%.

`Cc1ncc([N+](=O)[O-])n1CCO` [METRONIDAZOLE]: in the assay on Trichomonas vaginalis, the inhibition of growth at 10 µM turned out to be 100%.

As for `S=C(NCCCNC(=S)NCCCNc1ccnc2cc(Cl)ccc12)NCCCNc1ccnc2cc(Cl)ccc12`, the IC50 was 230 nM in the assay with Plasmodium falciparum [1], 38400 nM in assay [3], 340 nM in the assay with Plasmodium falciparum [4] and 6520 nM in assay [5]. Moreover, the “Ratio IC50” value in the assay with Plasmodium falciparum [2] is 0.7. The inhibition of growth at 10 µM in the assay on Trichomonas vaginalis stood at 55.9%.

`CCN(CC)CCCC(C)Nc1ccnc2cc(Cl)ccc12` (stereo unspecified) [CHLOROQUINE] registered an IC50 in assay [5] of 73800 nM.

As for `CCCNC(=S)NCCCNc1ccnc2cc(Cl)ccc12`, the IC50 in the assay with Plasmodium falciparum [1] turned out to be 260 nM; in assay [3] it was 43800 nM; with Plasmodium falciparum [4] it was 160 nM; in assay [5], 58200 nM. Moreover, the “Ratio IC50” value in the assay with Plasmodium falciparum [2] is listed as 1.6. In addition, the inhibition of growth at 10 µM in the assay on Trichomonas vaginalis worked out at 34.9%.
